From ChEMBL document CHEMBL3621195, “Analogues of the marine alkaloids oroidin, clathrodin, and hymenidin induce apoptosis in human HepG2 and THP-1 cancer cells” (Medchemcomm, 2015) come the findings set out here.

In the assay the test system is HepG2. In words: Induction of apoptosis in human HepG2 cells at 50 uM incubated for 24 hrs by Annexin V-FITC and propidium iodide staining based microcapillary flow cytometry. It is filed as functional.
In turn, `Cc1c(NC(=O)c2cc3ccccc3o2)cccc1-n1cnnn1` registered an Activity of 45%.

On to `Nc1nc2c(s1)C[C@@H](NC(=O)c1cc3ccccc3[nH]1)CC2`, for which the Activity amounted to 27%.

Compound `Cl.Cl.Nc1nc2c(s1)C[C@@H](NC(=O)[C@@H]1CCCN1)CC2` returned an Activity of 22%.

Compound `Cn1cccc1C(=O)N[C@H]1CCc2nc(N)sc2C1` came in with an Activity of 20%.

For the compound `Nc1nc2c(s1)C[C@@H](NC(=O)c1ccco1)CC2`, the Activity was determined as 29%.

In turn, `Nc1nc2c(s1)C[C@@H](NCc1ccc[nH]1)CC2` yielded an Activity of 30%.

Compound `Nc1nc2c(s1)CC(CNC(=O)c1ccc[nH]1)CC2` (centres undefined) showed an Activity of 20%.

In the case of `Nc1nc2c(s1)CC(CNC(=O)c1cc(Br)c(Br)[nH]1)CC2` (centres undefined), the Activity is given as 23%.

Take `Nc1nc2c(s1)CC(CNC(=O)c1cc3ccccc3[nH]1)CC2` (centres undefined): the Activity was 32%.

The compound `CC(C)(C)OC(=O)N1CCC[C@H]1C(=O)NCC1CCc2nc(N)sc2C1` (some centres undefined) registered an Activity of 23%.

In the case of `Cl.Cl.Nc1nc2c(s1)CC(CNC(=O)[C@@H]1CCCN1)CC2` (some centres undefined), the Activity was found to be 27%.

The compound `Nc1nc2c(s1)C[C@@H](NC(=O)c1ccc[nH]1)CC2` displayed an Activity of 23%.

Compound `Nc1nc2c(s1)C[C@@H](NC(=O)c1cc(Br)c[nH]1)CC2` came in with an Activity of 28%.

Regarding `Nc1nc2c(s1)C[C@@H](NC(=O)c1cc(Br)c(Br)[nH]1)CC2`, the Activity was determined as 35%.

`CNc1nc(-c2cccc(NC(=O)c3cc4ccccc4[nH]3)c2)cn1C(=O)OC(C)(C)C`: the Activity came to 90%.

`CC(C)(C)OC(=O)n1cc(-c2ccc(NC(=O)c3ccc[nH]3)cc2)nc1N` showed an Activity of 24%.

The compound `Cl.Nc1nc(-c2cccc(NC(=O)c3ccc[nH]3)c2)c[nH]1` gave an Activity of 13%.

Regarding `Cl.Nc1nc(-c2ccc(NC(=O)c3ccc[nH]3)cc2)c[nH]1`, the Activity worked out at 20%.

`CC(C)(C)OC(=O)n1cc(-c2cccc(NC(=O)c3cc[nH]c3)c2)nc1N` returned an Activity of 19%.

`CC(C)(C)OC(=O)n1cc(-c2cccc(NC(=O)c3cc4ccccc4[nH]3)c2)nc1N` registered an Activity of 75%.

`CC(C)(C)OC(=O)n1cc(-c2ccc(NC(=O)c3cc4ccccc4[nH]3)cc2)nc1N`: the Activity was determined as 90%.

With `Cl.Nc1nc(-c2cccc(NC(=O)c3cc4ccccc4[nH]3)c2)c[nH]1`, the Activity worked out at 77%.

`CC(C)(C)OC(=O)n1cc(-c2cccc(NC(=O)c3c[nH]c4ccccc34)c2)nc1N` showed an Activity of 62%.

With `Cl.Nc1nc(-c2cccc(NC(=O)c3c[nH]c4ccccc34)c2)c[nH]1`, the Activity turned out to be 55%.

As for `CNc1nc(-c2cccc(NC(=O)c3ccco3)c2)cn1C(=O)OC(C)(C)C`, the Activity is 44%.

As for `CC(C)(C)OC(=O)n1cc(-c2cccc(NC(=O)c3ccc[nH]3)c2)nc1N`, the Activity is 21%.

`Cl.Nc1nc(-c2cccc(NC(=O)c3cc4cc(OCc5ccccc5)ccc4[nH]3)c2)c[nH]1` displayed an Activity of 50%.

The compound `Nc1nc(/C=C/CNC(=O)c2cc3ccccc3[nH]2)c[nH]1` came in with an Activity of 36%.

`Nc1nc(/C=C/CNC(=O)c2cc3cc(F)ccc3[nH]2)c[nH]1`: the Activity stood at 38%.

For `CC(C)(C)OC(=O)n1cc(-c2cccc(NC(=O)c3cc4cc(OC(F)(F)F)ccc4[nH]3)c2)nc1N`, the Activity came out at 43%.

With `CC(C)(C)OC(=O)n1cc(-c2cccc(NC(=O)c3cc4cc(O)ccc4[nH]3)c2)nc1N`, the Activity is given as 56%.

Consider `Cl.Nc1nc(-c2cccc(NC(=O)c3cc4cc(O)ccc4[nH]3)c2)c[nH]1`, for which the Activity is 19%.

For the compound `O=C(Nc1cccc(-c2ccn[nH]2)c1)c1cc2ccccc2[nH]1`, the Activity is 68%.

The compound `Nc1nc(-c2cccc(NC(=O)c3ccc[nH]3)c2)cn1Cc1ccccc1` returned an Activity of 54%.

The compound `CC(C)(C)OC(=O)n1cc(-c2ccc(NCc3c[nH]cn3)cc2)nc1N` came in with an Activity of 39%.

For the compound `CNC1=NC(c2cccc(NC(=O)c3ccco3)c2)CN1.Cl` (centres undefined), the Activity is listed as 28%.

`Nc1nc(-c2cccc(NCc3ccc[nH]3)c2)cn1Cc1ccccc1`: the Activity is listed as 86%.

As to `CC(C)(C)OC(=O)n1cc(-c2ccc(NCc3ccc[nH]3)cc2)nc1N`, the Activity came out at 34%.

For the compound `CC(C)(C)OC(=O)N1CCC[C@H]1C(=O)Nc1ccc(-c2cn(C(=O)OC(C)(C)C)c(N)n2)cc1`, the Activity is on record as 20%.

Consider `CC(C)(C)OC(=O)N1CCC[C@@H]1C(=O)Nc1ccc(-c2cn(C(=O)OC(C)(C)C)c(N)n2)cc1`, for which the Activity is 23%.

Compound `COCc1c(C(=O)Nc2cccc(-c3ccn[nH]3)c2)sc2cccc(F)c12` returned an Activity of 65%.

For `O=C(Nc1cccc(-c2ccn[nH]2)c1)c1ccc2[nH]nnc2c1`, the Activity was found to be 20%.

In the case of `Nc1nc(/C=C/CNC(=O)c2cc(Br)c[nH]2)c[nH]1`, the Activity worked out at 25%.

In turn, `Nc1nc(CCCNC(=O)c2ccc[nH]2)c[nH]1` returned an Activity of 25%.

`Nc1nc(/C=C/CNC(=O)c2ccccc2)c[nH]1`: the Activity stood at 33%.

Compound `COc1ccc2[nH]c(C(=O)Nc3cccc(-c4cn(C(=O)OC(C)(C)C)c(N)n4)c3)cc2c1` returned an Activity of 87%.

Compound `CC(C)(C)OC(=O)n1cc(-c2cccc(NC(=O)c3cc4cc(F)ccc4[nH]3)c2)nc1N` returned an Activity of 89%.

Compound `CC(C)(C)OC(=O)n1cc(-c2cccc(NC(=O)c3cc4sccc4[nH]3)c2)nc1N` returned an Activity of 86%.

In turn, `CNC1=NC(c2cccc(NC(=O)c3ccco3)c2)CN1C(=O)OC(C)(C)C` (centres undefined) had an Activity of 32%.

The compound `CC(C)(C)OC(=O)n1cc(-c2cccc(NC(=O)c3cc4cc(OCc5ccccc5)ccc4[nH]3)c2)nc1N` showed an Activity of 81%.

`CC(C)(C)OC(=O)n1cc(-c2cccc(NC(=O)c3cc4cc(Cl)ccc4[nH]3)c2)nc1N`: the Activity stood at 91%.

Consider `CNC1=NC(c2cccc(NC(=O)c3ccc[nH]3)c2)CN1C(=O)OC(C)(C)C` (centres undefined), for which the Activity is on record as 31%.

For `CNC1=NC(c2cccc(NC(=O)c3cc4ccccc4[nH]3)c2)CN1C(=O)OC(C)(C)C` (centres undefined), the Activity is listed as 74%.

For `Cl.Nc1nc(-c2cccc(NC(=O)c3cc[nH]c3)c2)c[nH]1`, the Activity is recorded as 16%.

The compound `CNC1=NC(c2cccc(NC(=O)c3ccc[nH]3)c2)CN1.Cl` (centres undefined) yielded an Activity of 28%.

With `CNC1=NC(c2cccc(NC(=O)c3cc4ccccc4[nH]3)c2)CN1.Cl` (centres undefined), the Activity is 27%.

In the case of `Cl.Cl.Nc1nc(CN2CCN(C(=O)c3ccc[nH]3)CC2)c[nH]1`, the Activity stood at 27%.

`Cl.Cl.Nc1nc(CN2CCN(Cc3ccc[nH]3)CC2)c[nH]1` yielded an Activity of 34%.

Take `Cl.Cl.Cl.Nc1nc(CN2CCN(C(=O)[C@@H]3CCCN3)CC2)c[nH]1`: the Activity worked out at 28%.

`Cl.Cl.Nc1nc(CN2CCN(C(=O)c3cc4ccccc4[nH]3)CC2)c[nH]1` gave an Activity of 32%.

`Cl.Cl.Nc1nc(CN2CCN(C(=O)c3c[nH]c4ccccc34)CC2)c[nH]1` had an Activity of 30%.

`Cl.Cl.Nc1nc(CN2CCN(Cc3ccccc3)CC2)c[nH]1` yielded an Activity of 32%.

In turn, `Cl.Cl.Nc1nc(CN2CCN(C(=O)c3cccnc3)CC2)c[nH]1` gave an Activity of 28%.

The compound `O=C(c1ccc[nH]1)N1CCN(Cc2c[nH]cn2)CC1` displayed an Activity of 23%.

For the compound `Nc1ncc(CC(=O)N2CCN(C(=O)c3ccc[nH]3)CC2)s1`, the Activity is 23%.

In the case of `Nc1ncc(C(=O)N2CCN(C(=O)c3ccc[nH]3)CC2)s1`, the Activity turned out to be 20%.

`CC(C)(C)OC(=O)n1cc(-c2cccc(NCc3ccc[nH]3)c2)nc1N` showed an Activity of 40%.

`O=C1CCc2cc(C(=O)Nc3cccc(-c4ccn[nH]4)c3)ccc2N1` returned an Activity of 26%.

The compound `Cc1nc(-c2cccc(NC(=O)c3cc4ccccc4[nH]3)c2)cs1` had an Activity of 57%.

Compound `Cl.Cl.Nc1nc(-c2ccc(NC(=O)[C@@H]3CCCN3)cc2)c[nH]1` displayed an Activity of 22%.

In turn, `O=C(Nc1cccc(-c2ccn[nH]2)c1)c1cc2ccccc2o1` had an Activity of 40%.

Take `O=C(Nc1cccc(-c2ccn[nH]2)c1)c1ccc2[nH]cnc2c1`: the Activity was 47%.

`Cc1cc(C)n2nc(C(=O)Nc3cccc(-c4ccn[nH]4)c3)nc2n1`: the Activity is reported as 31%.

`O=C(Nc1cccc(-c2ccn[nH]2)c1)c1cc2ccccc2c(=O)[nH]1` returned an Activity of 91%.

`Cc1nc(-c2cccc(NC(=O)c3cn4ccccc4n3)c2)cs1`: the Activity was determined as 25%.

The compound `CCn1cnnc1-c1cccc(NC(=O)c2cc3ccc(C)cc3[nH]2)c1` showed an Activity of 55%.

The compound `O=C(Nc1cccc(-n2cnnn2)c1)c1cc2ccccc2[nH]1` had an Activity of 56%.

With `O=C(Nc1cccc(-n2cnnn2)c1)c1cn2ccccc2n1`, the Activity is listed as 27%.

The compound `O=C(NC1CC1)c1cccc(NC(=O)c2cc3c(F)cccc3[nH]2)c1` had an Activity of 51%.

The compound `Cc1cc(=O)[nH]c(-c2cccc(NC(=O)c3ccc(N(C)C)cc3)c2)n1` showed an Activity of 37%.

Consider `Cc1ccn2cc(C(=O)Nc3cccc(-c4nnco4)c3)nc2c1`, for which the Activity was found to be 6%.

For the compound `CCn1nnnc1-c1cccc(NC(=O)c2cc3ccccc3[nH]2)c1`, the Activity worked out at 28%.

`O=C(Nc1cccc(-n2cnnn2)c1)c1cc2c(F)cccc2s1` had an Activity of 39%.

In turn, `Cc1ccc2cc(C(=O)Nc3cccc(C(N)=O)c3)[nH]c2c1` showed an Activity of 66%.

As to `O=C(Nc1cccc(N2CCCC2=O)c1)c1cc2ccccc2[nH]1`, the Activity came to 43%.

Regarding `CC(C)(C)OC(=O)N1CCCC1C(=O)Nc1cccc(-c2cn(C(=O)OC(C)(C)C)c(N)n2)c1` (single isomer, unassigned), the Activity is given as 18%.

For `Cl.Cl.Nc1nc(-c2cccc(NC(=O)C3CCCN3)c2)c[nH]1` (single isomer, unassigned), the Activity worked out at 16%.

In turn, `Nc1ncc(/C=C/CNC(=O)c2ccc[nH]2)[nH]1` [CLATHRODIN] gave an Activity of 27%.

`Nc1ncc(/C=C/CNC(=O)c2cc(Br)c(Br)[nH]2)[nH]1` [OROIDIN]: the Activity stood at 35%.
